Tests used:
Format in all cases: cell-based
E. coli strain WO-153 = assay: Genome-wide E. coli ORFmer overexpression rescue (OER) assay; conditions: for PCR verification of OER clones: expected target gene: liquid microtiter assay, expected targets folA, murA, fabI; for PCR verification of OER clones: expected clone: two plate assay format (disk diffusion, gradient plate)
Procedure: Over expression Rescue Assays. Over expression assays were conducted with the E. coli strain WO-153 described in Table 7. Construction of WO-0153. […] The asmB1 mutation is a G to A transition at position 628 in the 1pxC gene. […] The tolC gene encodes an outer membrane protein that acts as a channel for the acrAB efflux pumps (See for example, Fralick, J. 1996. J. Bacteriol. 178:5801-5805). […] WO-0153 was constructed as follows. The asmB1 mutation was introduced into a DNA fragment containing the 1pxC gene and 1 kb of the 5′ end of the secA gene by site directed mutagenesis of the 1pxC gene using standard methods. A kan^R resistance cassette flanked by FRT sites was introduced 60 bp downstream of the 1pxC gene. The linear DNA construct was introduced into electrocompetent and recombinogenic E. coli KM354 (pTP223) as described by Murphy (See for example, Murphy, 1998, J. Bacteriol. 180: 2063-71). Transformants were selected on LB agar containing kanamycin (35 mcg/ml) and screened for sensitivity to novobiocin (20 mcg/ml). The presence of the asmB1 mutation in clones with the expected phenotype was verified by DNA sequence analysis. The kanR gene flanked by FRT sites was then excised from the 1pxC-secA intergenic region using a previously described method (See for example, Cherepanove, P. P, and Wackernagel, W. 1995. Gene 158: 9-14.). […] 178:5138-5143; Fralick, J. (1996). J. Bacteriol. 178:5801-5805; Fralick, J. A., et al. (1994) J. Bacteriol. 176:6404-6406; and Cherepanove, P. P, et al., (1995) Gene 158:9-14. […] Plasmid library DNA was transformed into WO-153 by electroporation as described above. Cells were collected from transformation plates by scraping and were equalized to an optical density of 1.53 on a Beckman DU650 spectrophotometer([…]). Groups of five libraries were mixed and frozen in LB media plus 10% (vol/vol) glycerol by immersion in a dry-ice/ethanol bath for 5 minutes.
Over-expression assays were performed in liquid media in a microtiter format, in a gradient plate format, or in a disk-diffusion format. The protocol used for the microtiter format was similar to the protocol described above for the MIC assay. Aliquots of 5 library pools spanning the genome were thawed at room temperature and 200 ul of each was inoculated into its own 20 ml of Mueller Hinton media containing ampicillin at 200 ug/ml and anhydrous tetracycline inducer as appropriate. Typically, replicates were performed using a number of final inducer concentrations, ranging from 0 to 100 ng/ml. Following an adequate mixing, 50 ul of inoculated media was mixed with 50 ul of the test antibiotic in Nunc brand 96-well microtiterplates. Typically, each group of five libraries was mixed with a range of concentrations of antibiotic spanning the minimum inhibitory concentration (MIC) of the antibiotic. […] Columns may contain 10 different groups of libraries as well as null vector and no innoculum controls. After mixing inoculum plus media with antibiotic, well contents were mixed by pipetting and incubated at 37° C. for 16 to 20 hours. Optical density at 600 nm was measured using a Molecular Devices SpectraMAX 250 spectrophotometer. […] Contents of wells showing rescue were transferred to LB agar plates containing ampicillin at 100 ug/ml, and were spread to obtain single colonies. Alternately, it is possible to maintain selection for the antibiotic being assayed by including it in the agar plates at this point.
OER Assay using Disk diffusion and Gradient Plate Assay formats. In the Disk diffusion plate format, the 3 inocula (see below) were plated on MHB plates containing ampicillin (100 mcg/ml) and anhydrous tetracycline (a-tet, 100 ng/ml). Two paper disks (6 mm diameter) containing 10×and 20×MIC of the test antiobiotic were placed on the surface of the plate.

[1] = test system: cells in which folA is regulated by PBAD, PLtetO-1, or Plac/ara-1; assay: MIC by microbroth dilution in E. coli under-expressing folA; conditions: for MIC with decreasing regulator level: PLtetO-1 or Plac/ara-1, regulators L-arabinose, anhydrotetracycline, IPTG, FIG. 3
Procedure: In another example, the wild-type native folA gene was knocked out, and a wild-type copy of the gene folA, which encodes the protein dihydrofolate reductase, was placed under ectopic expression in the yibD locus under regulation by PBAD with the regulator, L-arabinose. Dihydropteroate synthetase, the gene product of […], catalyzes the enzymatic reaction two steps before dihydrofolate reductase in the folate biosynthetic pathway.
(§1) Methods. […] IPTG was added to a final concentration of 0.1 mM and anhydrous-tetracycline was added to a final concentration of 100 ng/ml to the culture media for routine growth of GTC-EC#313 and GTC-EC#346, respectively.
(§2) The specificity and sensitivity of the resultant colonies to added drugs were followed by measuring the minimal inhibitory concentration (MIC) of trimethoprim, sulfamethozasone, phosphomycin and D-cycloserine at varying regulator levels. This was performed according to NCCLS (National Center for Clinical Laboratory Standards) recommendations(NCCLS, 1997, METHODS FOR DILUTION ANTIMICROBIAL SUSCEPTIBILITY TESTS FOR BACTERIA THAT GROW AEROBICALLY, 4th ed.; approved standard. NCCLS document M7-A4. NCCLS, Wayne, Pa.), in 100 μl volume in 96-well format, with serial two-fold dilutions of drug concentration.

[2] = test system: cells in which murA is regulated by PBAD; assay: MIC by microbroth dilution in E. coli under-expressing murA; conditions: for MIC with decreasing regulator (L-arabinose) level: FIG. 4; for sensitivity on under-expression of murA: FIG. 6
Procedure: The wild-type gene murA, which encodes the enzyme UDP-N-acetylglucosamine enolpyruvate transferase, was knocked out in E. coli, and the gene was placed under ectopic expression in the yibD locus under regulation by PBAD with the regulator, L-arabinose.
as §1, §2

| SMILES | PCR verification of OER clones: expected target gene (E. coli strain WO-153) | PCR verification of OER clones: expected clone (E. coli strain WO-153) | MIC with decreasing regulator level [1] | MIC with decreasing regulator (L-arabinose) level [2] | sensitivity on under-expression of murA [2] | MIC with decreasing regulator (L-arabinose) level ([1]; FIG. 5) |
| --- | --- | --- | --- | --- | --- | --- |
| C[C@@H]1O[C@@H]1P(=O)(O)O [phosphomycin] | expected target gene was identifed | expected clone was isolated | relatively unchanged | decreases | hypersensitivity | – |
| COc1cc(Cc2cnc(N)nc2N)cc(OC)c1OC [trimethoprim] | expected target gene was identifed | expected clone was isolated | decreases | relatively unchanged | not sensitive | decreases |
